Results: publication PMC6812009, “Covalent Aurora A regulation by the metabolic integrator coenzyme A” (Redox Biology, 2019)
Each block holds one molecule with its values, some of them ahead of it.

Tests used:
[1] = biological target: T1, WT Aurora A (T288 phosphorylated, active) (Homo sapiens, UniProt O14965); experiment: Thermal shift assay (differential scanning fluorimetry); type: binding; conditions: 5 mM ATP, 5 mM CoA or 0.1 mM MLN8237; for CoA dependent on non-reducing conditions
T1 construct: Bacterially expressed full-length His-Aurora A was used to determine the IC50 value for CoA; made in house; host or cells: E. coli BL21 (DE3) pLysS
T1 sequence (O14965 1-403): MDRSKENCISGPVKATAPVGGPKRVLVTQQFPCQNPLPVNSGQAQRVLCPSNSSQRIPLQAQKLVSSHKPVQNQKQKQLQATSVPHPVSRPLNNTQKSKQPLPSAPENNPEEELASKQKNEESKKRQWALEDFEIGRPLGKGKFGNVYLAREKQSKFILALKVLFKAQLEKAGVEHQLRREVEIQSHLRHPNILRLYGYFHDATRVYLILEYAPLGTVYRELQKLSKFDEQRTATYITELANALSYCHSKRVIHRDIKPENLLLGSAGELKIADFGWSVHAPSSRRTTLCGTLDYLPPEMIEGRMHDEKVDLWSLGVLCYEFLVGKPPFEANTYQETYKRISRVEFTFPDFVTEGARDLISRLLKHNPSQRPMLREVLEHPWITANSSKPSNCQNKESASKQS
Protocol: (§1) Asp274Asn and Thr217Glu Aurora A mutants were generated by PCR-site directed mutagenesis, expressed and purified as described previously. Cys290Ala Aurora A was generated using standard procedures, and purified as described.
(§2) Thermal-shift assays were performed with a StepOnePlus Real-Time PCR machine (Life Technologies) using Sypro-Orange dye (Invitrogen) and thermal ramping (0.3 °C in step intervals between 25 and 94 °C). All proteins were diluted to a final concentration of 5 μM in 50 mM Tris/HCl, pH 7.4 and 100 mM NaCl in the presence or absence of the indicated concentrations of ligand (final DMSO concentration no higher than 4 % v/v). CoA, dephosphoCoA or kinase inhibitors diluted from 10 mM DMSO stocks were assayed as described previously. Normalized data were processed using the Boltzmann equation to generate sigmoidal denaturation curves, and average Tm/ΔTm values calculated as previously described using GraphPad Prism software.

T217E Aurora A = biological target: T2, T217E Aurora A (Homo sapiens, UniProt O14965, T217E); experiment: as above; type: binding; conditions: 5 mM ATP, 5 mM CoA or 0.1 mM MLN8237
T2 construct: For enzyme and DSF assays, full-length human Aurora A and Aurora B and 1–43 TPX2 were produced; made in house; host or cells: E. coli
T2 sequence (O14965 1-403 T217E): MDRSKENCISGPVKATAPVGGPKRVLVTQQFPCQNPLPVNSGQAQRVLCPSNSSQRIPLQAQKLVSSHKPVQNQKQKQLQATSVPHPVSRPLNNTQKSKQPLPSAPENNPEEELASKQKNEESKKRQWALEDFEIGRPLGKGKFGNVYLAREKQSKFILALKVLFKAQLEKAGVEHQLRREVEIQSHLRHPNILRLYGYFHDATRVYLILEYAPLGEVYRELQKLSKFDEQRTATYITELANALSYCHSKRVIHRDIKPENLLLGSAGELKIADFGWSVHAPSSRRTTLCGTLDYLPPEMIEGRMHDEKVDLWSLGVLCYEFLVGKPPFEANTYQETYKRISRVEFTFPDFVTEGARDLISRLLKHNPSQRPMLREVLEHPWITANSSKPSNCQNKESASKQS
Protocol: as §1, §2

mouse oocytes = experiment: Microinjection of mouse oocytes, spindle formation and chromosome alignment; type: cell-based; conditions: injected with 3 mM compound, 17 h after GV release
Protocol: Mouse oocytes arrested at the GV stage were injected with different concentrations of CoA (0.15–5 mM). Since the commercial preparation of CoA used for microinjection contained 3 mol of lithium ions per mole of CoA, control oocytes were injected with an equivalent amount of LiCl. In a separate study, oocytes were injected with 3 mM CoA, ADP, AMP, 3′-5′-ADP and pantetheine. To examine the effect of injected compounds on spindle formation, oocytes were fixed 17 h after GV release and stained for alpha-tubulin (green) and DNA (blue).

[2] = biological target: T3, FLAG-tagged WT Aurora A (human), O14965; experiment: non-reducing SDS-PAGE and immunoblot of an anti-FLAG immunoprecipitate; FLAG-Aurora A immunoprecipitated from HEK293/Pank1β cells treated 30 min with oxidising agents (250 μM H2O2, 500 μM diamide, 50 μM menadione, 10 μM phenylarsine oxide, 1 μM rotenone); SDS-PAGE under reducing and non-reducing conditions; blots with anti-FLAG and anti-pT288; dimers seen under non-reducing conditions; conditions: remark: other sources report otherwise
T3 chain: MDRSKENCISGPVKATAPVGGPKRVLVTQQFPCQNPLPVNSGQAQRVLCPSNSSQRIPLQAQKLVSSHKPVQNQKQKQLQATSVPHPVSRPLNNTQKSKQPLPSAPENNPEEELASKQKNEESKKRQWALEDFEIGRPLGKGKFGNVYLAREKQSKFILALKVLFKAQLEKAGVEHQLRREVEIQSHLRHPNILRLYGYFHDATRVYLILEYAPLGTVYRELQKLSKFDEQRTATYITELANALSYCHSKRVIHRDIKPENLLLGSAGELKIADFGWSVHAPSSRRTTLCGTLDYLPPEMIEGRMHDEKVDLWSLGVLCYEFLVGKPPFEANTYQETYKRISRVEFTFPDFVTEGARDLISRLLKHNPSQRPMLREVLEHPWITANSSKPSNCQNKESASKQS

[3] = biological target: T4, purified Aurora A (human), O14965; experiment: non-reducing SDS-PAGE; purified Aurora A briefly exposed to peroxide; reducing compared with non-reducing SDS-PAGE; dimer sensitive to DTT; conditions: remark: other sources report otherwise
T4 chain: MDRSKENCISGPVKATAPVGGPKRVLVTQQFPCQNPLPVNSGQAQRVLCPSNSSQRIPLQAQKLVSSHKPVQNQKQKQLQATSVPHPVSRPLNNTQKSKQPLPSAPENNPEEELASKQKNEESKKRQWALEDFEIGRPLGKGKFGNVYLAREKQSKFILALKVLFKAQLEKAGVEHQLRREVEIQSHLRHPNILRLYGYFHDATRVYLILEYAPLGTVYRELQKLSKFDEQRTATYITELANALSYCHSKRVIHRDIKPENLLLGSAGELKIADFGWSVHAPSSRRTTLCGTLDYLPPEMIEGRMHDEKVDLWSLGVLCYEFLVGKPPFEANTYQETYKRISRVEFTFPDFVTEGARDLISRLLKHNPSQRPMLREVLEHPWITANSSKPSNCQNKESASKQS

Molecule: COc1cc(Nc2ncc3c(n2)-c2ccc(Cl)cc2C(c2c(F)cccc2OC)=NC3)ccc1C(=O)O [MLN8237, alisertib]
Change in thermal stability (ΔTm) [1]: marked change in thermal stability
Ligand-induced thermal shift (T217E Aurora A): stabilization

Molecule: Nc1ncnc2c1ncn2[C@@H]1O[C@H](COP(=O)(O)O)[C@@H](O)[C@H]1O [AMP]
Disruption of bipolar spindle formation and chromosome alignment (mouse oocytes): not

Molecule: CC(C)(CO)[C@@H](O)C(=O)NCCC(=O)NCCS [pantetheine]
Disruption of bipolar spindle formation and chromosome alignment (mouse oocytes): not

stoichiometry N [2]: 2
B1: FLAG-tagged WT Aurora A, O14965 1-403 (enzyme)
chain: MDRSKENCISGPVKATAPVGGPKRVLVTQQFPCQNPLPVNSGQAQRVLCPSNSSQRIPLQAQKLVSSHKPVQNQKQKQLQATSVPHPVSRPLNNTQKSKQPLPSAPENNPEEELASKQKNEESKKRQWALEDFEIGRPLGKGKFGNVYLAREKQSKFILALKVLFKAQLEKAGVEHQLRREVEIQSHLRHPNILRLYGYFHDATRVYLILEYAPLGTVYRELQKLSKFDEQRTATYITELANALSYCHSKRVIHRDIKPENLLLGSAGELKIADFGWSVHAPSSRRTTLCGTLDYLPPEMIEGRMHDEKVDLWSLGVLCYEFLVGKPPFEANTYQETYKRISRVEFTFPDFVTEGARDLISRLLKHNPSQRPMLREVLEHPWITANSSKPSNCQNKESASKQS
modifications: here or on the partner: phosphothreonine at 288 (detected with anti-pT288 antibody after oxidising agents); phosphothreonine at 288 (detected with anti-pT288 antibody after oxidising agents)

stoichiometry N [3]: 2
B2: purified Aurora A, O14965 1-403 (enzyme)
chain: MDRSKENCISGPVKATAPVGGPKRVLVTQQFPCQNPLPVNSGQAQRVLCPSNSSQRIPLQAQKLVSSHKPVQNQKQKQLQATSVPHPVSRPLNNTQKSKQPLPSAPENNPEEELASKQKNEESKKRQWALEDFEIGRPLGKGKFGNVYLAREKQSKFILALKVLFKAQLEKAGVEHQLRREVEIQSHLRHPNILRLYGYFHDATRVYLILEYAPLGTVYRELQKLSKFDEQRTATYITELANALSYCHSKRVIHRDIKPENLLLGSAGELKIADFGWSVHAPSSRRTTLCGTLDYLPPEMIEGRMHDEKVDLWSLGVLCYEFLVGKPPFEANTYQETYKRISRVEFTFPDFVTEGARDLISRLLKHNPSQRPMLREVLEHPWITANSSKPSNCQNKESASKQS
